Results reported in patent US20100247659A1, “PHENYLPHTHALIMIDE ANALOGS FOR TREATING DIABETIC MACULAR EDEMA” (Charlesson, LLC, priority 2007, published 2010).

Legend:
OIR rats = assay: Retinal vascular leakage in OIR rats, intravitreal injection; assay type: in vivo, rat; settings: for retinal vascular leakage as % of contralateral vehicle-injected eyes: intravitreal 5 μl 0.8 mM at P14, measured P16; for reduction of retinal vascular leakage vs vehicle control: single intravitreal 1.0 μg/eye (5 μl 0.8 mM) at P14, measured P16
From the text: Induction of oxygen-induced retinopathy (OIR): Induction of OIR followed the procedure as described by Smith et al (Smith, et al. Invest. Opthalmol. Vis. Sci. 1994, 35: 101-111) with some modifications. Briefly, Newborn Brown Norway (BN) rats (Charles River Laboratories) at postnatal day 7 (P7) were exposed to hyperoxia (75% O2) for 5 days (P7-12) and then returned to normoxia (room air) to induce retinopathy.
(§2) Intravitreal injection of compounds: Thalidomide and the phenylphthalimide analogs Compounds 1, 2 and Compound 4 were dissolved in vehicle (BN rat serum) and sterilized by filtration. OIR and STZ-diabetic BN rats received an intravitreal injection of 0.5-2.0 μg/eye of (5 μl/eye, 0.1-0.4 mg/ml in BN rat serum) of thalidomide, Compounds 1, 2 or Compound 4 into the right eye and the equal volume of the BN rat serum into the left eye.
Measurement of vascular permeability: Vascular permeability was quantified by measuring leakage of FITC-albumin or Evans blue dye-albumin complex from the blood vessels into the retina as described (Xu, et al. Invest. Opthalmol. Vis. Sci. 2001, 42:789-794), with some modifications. Briefly, FITC-albumin was injected through the femoral vein and circulated for 2 h. The rats were then perfused via the left ventricle. The retinas were carefully dissected and homogenized. The concentrations of FITC-albumin were measured in a fluorometer and normalized by the total protein concentration in each retina and by plasma concentration of FITC-albumin.
To induce OIR, BN rats at postnatal day 7 (P7) were exposed to hyperoxia (75% O2) for 5 days (P7-P12) and then returned to normoxia. Normal control rats were kept in room air. At P14, the OIR BN rats received an intravitreal injection of 5 μl (0.8 mM in BN rat serum)/eye of thalidomide, Compound 1, Compound 2, or Compound 4 into the right eye and same volume of the BN rat serum into the left eye. Retinal vascular leakage was measured using FITC-labeled albumin as tracer. Normal non-OIR BN rats (n=6) served as baseline at P16.
To determine if the effect of Compound 4 on retinal vascular leakage was dose-dependent, the OIR rats at P14 received a single injection of Compound 4 with doses of 0.5, 0.75 and 1.0 μg/eye (5 μl of 0.10, 0.15 and 0.20 mg/ml).
In FIG. 7A, OIR rats received an intravitreal injection of 5 μl (0.8 mM in BN rat serum)/eye of thalidomide, Compounds 1, 2, or 4 in the right eye and the same volume of the vehicle in the left eye at P14. Vascular leakage was measured using the FITC-labeled albumin leakage method at P16 and expressed as fd/pr of protein in the retina (mean±SD, n=6). Each of the experimental group was compared with contralateral eye by Student's t test. Retinal vascular leakage in normal non-OIR rats at age of P16 were used as baseline at P16. In FIG. 7B, vascular leakage in the compound-injected eyes was expressed as a percentage of average vascular leakage in the vehicle-injected contralateral eyes. For the control, the average vascular leakage in vehicle-treated retinas was used as 100%. […] In FIGS. 7C and 7D, OIR rats received an intravitreal injection of Compound 4 or thalidomide with doses as indicated at P14. Permeability was measured at P16 and expressed as fd/pr of protein in the retina (mean±SD, n=6). Each of the experimental group was compared with the vehicle control by the paired Student's t test. “Normal” is represented as the permeability in normal rats at P16.

HUVEC [1] = assay: MTT cell proliferation assay, HUVEC; assay type: cell-based; settings: Homo sapiens, 72 h, treated 3 days, read-out: IC50, inhibition of proliferation of HUVEC
From the text: (§1) Cell culture: All cell culture media and supplements were purchased from Cellgro unless otherwise indicated. Human Umbilical Vein Endothelial Cells (HUVEC) were obtained from American Type Culture Collection and grown in the EBM-MV2 medium (Clonetics). Bovine Retinal Endothelial Cells (BREC) and pericytes were isolated according to a modified method as described previously (Wong, et al. Investig. Opthalmol. Vis. Sci. 1987, 28: 1767-1775). Twelve bovine eyes were obtained from a local slaughterhouse (Country Home Meats). The retinas were removed and washed four times in DMEM. Subsequently retinas were homogenized and centrifuged at 400×g for 10 min. The resultant pellet was resuspended in an isolation medium (DMEM with 100 IU/ml penicillin, 100 μg/ml streptomycin and 250 ng/ml amphotericin). Microvessels were trapped on an 85 μm nylon mesh (Locker Wire Weavers LTD) and transferred to a petri dish (Falcon) containing 10 ml of an enzyme cocktail which consisted of 600 μg/ml DNase I (Sigma), 165 μg/ml collagenase (Sigma) and 700 μg/ml Pronase E (EMD) and were incubated at 37° C. for 20 min. The resultant vessel fragments were trapped on a 53 μm nylon mesh (Locker Wire Weavers LTD), washed with the isolation medium and centrifuged at 400×g for 5 min. For selective culture of pericytes, the resultant pellet was resuspended in 10 ml of the pericyte growth medium and transferred into 75-cm^2 plastic tissue culture flasks (BD Biosciences). For selective culture of BRCECs, the resultant pellet was resuspended in 10 ml of the BRCEC growth medium and transferred into 75-cm^2 collagen-coated plastic tissue culture flasks (BD Biosciences). The BRCEC growth medium consisted of DMEM supplemented with 10% human serum, 1% glutamine, 1 mg/ml insulin, 550 μg/ml transferring, 670 ng/ml selenium, 100 IU/ml penicillin, 100 μg/ml streptomycin, 250 ng/ml amphotericin, 90 μg/ml heparin (Sigma) and 15 μg/ml endothelial cell growth supplement (Upstate). Cells were cultured at 37° C. and 5% CO2 with regular medium change every 3 days. Confluence cultures were passaged by detaching the cells with 0.25% trypsin and plated at a split 1:3. […] At passage 2, BRCECs and pericytes were stored in a liquid nitrogen tank for future use.
MTT assay: Cells were seeded at a density of 5×10^4 cells per well in 400 μl of growth medium in triplicate in 24-well plates (Nalge Nunc) or gelatin-coated 24-well plates. Twenty-four hours after seeding, the growth medium was replaced by a medium containing 1% FBS, with or without different concentrations of thalidomide or phenylphthalimide analogs. After the cells were treated for 48-72 h, MTT was added to a final concentration of 0.5 mg of medium per ml and incubated for 4 h at 37° C. in 5% CO2. An equal volume of solubilizer buffer is then added, following the protocol recommended by the manufacturer (Roche Molecular Biochemicals), the cells will be incubated overnight at 37° C. in 5% CO2. The absorbance of the formazen product was measured at a wavelength of 570 nm, with 750 nm as the (subtracted) reference wavelength.
Primary endothelial cells (HUVEC and BRCEC) and pericytes were treated with various concentrations of the compounds for 3 days. Viable cells were quantified using MTT assay and IC50 of each compound was calculated (mean±SD, n=3, FIG. 1). The IC50 values represent the means and SE of 3 independent experiments.

HUVEC [2] = assay: Endothelial cell migration (invasion) assay; assay type: cell-based; settings: Homo sapiens, VEGF 4 ng/ml, invasion through Matrigel, read-out: IC50, inhibition of HUVEC migration
Method: Cells were allowed to invade for 22±1 hours. Cells were labeled post invasion with Calcein AM (4 μg/ml) and measured by detecting the fluorescence of cells that invaded through the BD Matrigel™ Matrix with an Applied Biosystems CytoFluor® 4000 plate reader at 485 nm excitation and 530 nm emission.
In this assay system, human endothelial cells are allowed to invade and are then labeled with fluorescent dye Calcein AM before quantification on a fluorometer.
In FIG. 2B, cells were seeded at 5×10^4/insert in EBM-2 containing 0.1% BSA in multi-well inserts. The assembled assays were allowed to proceed for 6 hours. The results are expressed as percent inhibition of migration as compared to control (no inhibitor). Data represents the average of 3 experiments, each run in triplicate. The bars represent mean±SD.

BRCEC = assay: MTT cell proliferation assay, BRCEC; assay type: cell-based, bovine; settings: Bos taurus, 72 h, treated 3 days, read-out: IC50, inhibition of proliferation of BRCEC
From the text: as §1
MTT assay: Cells were seeded at a density of 5×10^4 cells per well in 400 μl of growth medium in triplicate in 24-well plates (Nalge Nunc) or gelatin-coated 24-well plates. […] The absorbance of the formazen product was measured at a wavelength of 570 nm, with 750 nm as the (subtracted) reference wavelength.
Primary endothelial cells (HUVEC and BRCEC) and pericytes were treated with various concentrations of the compounds for 3 days. Viable cells were quantified using MTT assay and IC50 of each compound was calculated (mean±SD, n=3, FIG. 1). […]

[3] = system: CAM blood vessel formation induced by VEGF/bFGF; assay: Chicken chorioallantoic membrane (CAM) assay; assay type: in vivo; settings: 200 ng VEGF-165/bFGF, 48 hr
Method: Chicken chorioallantoic membrane (CAM) assay: The fertile Leghorn chicken eggs were incubated in a humidified environment at 37.5° C. for 10 days. […] Anti-angiogenic compounds were then added 8 hr after the VEGF/bFGF at saturation to the same microbial testing disk, and the embryos were incubated for an additional 40 h. CAMs were then removed, quickly fixed with 4% paraformaldehyde in PBS, placed onto Petri dishes, and digitized images taken at 7.5× using a Nikon dissecting microscope and Scion Imaging system. A 1×1-cm grid was then added to the digital CAM images and the average number of vessels within 5-7 grids counted as a measure of vascularity.
CAM assay was used for in vivo anti-angiogenic studies. The fertile leghorn chicken eggs were allowed to incubate in a humidified environment at 37.5° C. for 10 days. […] Anti-angiogenic compounds were then added 8 hours after the VEGF/bFGF at saturation to the same microbial testing disk and embryos allowed to incubate for an additional 40 hours. After 48 hr, CAMs were removed, quickly fixed with 4% paraformaldehyde in PBS, placed onto Petri dishes, and digitized images taken at 7.5× using a Nikon dissecting microscope and Scion Imaging system. A 1×1-cm grid was then added to the digital CAM images and the average number of vessels within 5-7 grids counted as a measure of vascularity.
FIG. 14 is a table comparing the effect of Compound 4 on blood vessel formation. […] Data represent mean±SD of 8-16 samples from 2-3 separate experiments.

STZ-diabetic rats = assay: Retinal vascular leakage in STZ-diabetic rats, intravitreal injection; assay type: in vivo, rat; settings: for reduction of retinal vascular leakage vs vehicle control: single intravitreal 1.0 μg/eye (5 μl 0.8 mM), 48 h; for reduction of retinal vascular permeability: two days
Method: Induction of diabetes by streptozotocin (STZ): BN rats (8 weeks of age) were given a single intraperitoneal injection of fresh made streptozotocin (STZ) (Sigma, 50 mg/kg in 10 mM of citrate buffer, pH 4.5) following an overnight fasting. Control rats received an injection of citrate buffer alone. Blood glucose levels were checked at 24 hours following the last STZ injection and once a week thereafter, and only the animals with glucose levels higher than 350 mg/dl were considered diabetic. Rats with hyperglycemia for 2 weeks were used for these experiments.
as §2
Evans blue dye (Sigma) was dissolved in 0.9% saline (30 mg/ml), sonicated for 5 min and filtered through a 0.45-μm filter (Millipore). The rats were then anesthetized, and Evans blue (30 mg/kg) was injected over 10 s through the femoral vein using a glass capillary under microscopic inspection. Evans blue non-covalently binds to plasma albumin in the blood stream. Immediately after Evans blue infusion, the rats turned visibly blue, confirming their uptake and distribution of the dye. The rats were kept on a warm pad for 2 h to ensure the complete circulation of the dye. Then the chest cavity was opened, and the rats were perfused via the left ventricle with 1% paraformaldehyde in citrate buffer (pH 4.2) which was pre-warmed to 37° C. to prevent vasoconstriction. The perfusion lasted 10 min under the physiological pressure of 120 mmHg, in order to clear the dye from the vessel. Immediately after perfusion, the eyes were enucleated and the retinas were carefully dissected under an operating microscope. Evans blue dye was extracted by incubating each sample in 150 μl of formamide for 18 h at 70° C. The extract was centrifuged (Beckman) at 70,000 rpm (Rotor type: TLA 100.3) for 20 min at 4° C. Absorbance was measured using 100 μl of the supernatant at 620 nm by using Spectrophotometer DU800 (Beckman). The concentration of Evans blue in the extract was calculated from a standard curve of Evans blue in formamide and normalized by the total protein concentration in each sample. Results were expressed in mg of Evans blue per mg of total protein content.
Diabetes was induced by injection of STZ (50 mg/kg, i.v.) into adult BN rats after overnight fasting. Blood glucose levels were monitored at the second day after the injection and once a week thereafter. Rats with glucose levels above 350 mg/dl were considered as diabetic and used for the study. thalidomide, Compounds 1, 2 and 4 were separately injected into the vitreous space (5 μl, 0.8 mM in BN rat serum) of the right eye of STZ-diabetic rats 2 wks after the induction of diabetes. At 48 h after the injection, retinal vascular leakage was measured using the Evans blue-albumin leakage method.
To determine the dose-response relationship of the effect of Compound 4 and thalidomide, the STZ-diabetic rats received an intravitreal injection of Compound 4 and thalidomide with doses of 0.5, 0.75 and 1.0 μg/eye (5 μl/eye of 0.10, 0.15 and 0.20 mg/ml), respectively.

HUVECs = assay: Tube formation assay on matrigel; assay type: cell-based, human; settings: 5 μM, 16 h
Method: Eight-well slide chambers were coated with matrigel and at 37° C. and 5% CO2 for 30 min. HUVECs were then seeded at 30,000 cells/well in EGM-II containing either vehicle (0.5% DMSO), 5 μM of Compound 4 or thalidomide and incubated at 37° C. and 5% CO2 for 16 h. After incubation, slides were washed in PBS, fixed in 100% methanol for 10 s, and stained with DiffQuick solution II for 2 min. To analyze tube formation, each well was digitally photographed using a ×2.5 objective.
Representative images were captured after incubation of vehicle, thalidomide and Compound 4 for 16 h.

SMILES	retinal vascular leakage as % of contralateral vehicle-injected eyes (OIR rats) [%]	reduction of retinal vascular leakage vs vehicle control (OIR rats) [%]	IC50 (HUVEC [1]) [nM]	IC50 (HUVEC [2]) [nM]	IC50 (BRCEC) [nM]	ED50, dose reducing blood vessel number to 50% of VEGF/bFGF alone group [3] [μg/embryo]	reduction of retinal vascular leakage vs vehicle control (STZ-diabetic rats) [%]	reduction of retinal vascular leakage (OIR rats; dose of 0.5 μg/eye)	reduction of retinal vascular leakage (OIR rats; doses of 0.75 and 1.0 μg/eye)	inhibition of tube formation (HUVECs)	reduction of retinal vascular permeability (STZ-diabetic rats; dose of 0.5 μg/eye)	reduction of retinal vascular permeability (STZ-diabetic rats; doses of 0.75 and 1.0 μg/eye)
CC(C)c1cccc(C(C)C)c1N1C(=O)c2ccc(N)cc2C1=O [Compound 4]	61	40	2000	< 1000	1830	6.5	~100					
O=C1CCC(N2C(=O)c3ccccc3C2=O)C(=O)N1 (stereo not shown) [thalidomide]	82	18	> 100000	> 100000	> 32000	> 100	77	not at the dose of 0.5 μg/eye	significantly reduced vascular leakage	did not show any inhibitory activity	not at 0.5 μg/eye	showed an inhibitory effect
